From patent US9149038B2, “4-amino-6-(heterocyclic)picolinates and 6-amino-2-(heterocyclic)pyrimidine-4-carboxylates and their use as herbicides” (Dow AgroSciences LLC, priority 2013, dated 2015)
Like-named read-outs stand apart in the source and are kept apart here.

Columns and labels:
[1] = system: Key Broadleaf Weed and Crop Species; assay: Post-Emergent Test II: postemergent herbicidal activity, visual rating after 14 d (Table 7); type: in vivo; details: post-emergence, 336 h; for pest or weed control at 35 g/ha: 35 g ai/ha; for pest or weed control at 70 g/ha: 70 g ai/ha; for pest or weed control at 140 g/ha: 140 g ai/ha
Procedure, shortened: (§1)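 Scoring is visual, 0-100, at 14 d after application, comparing treated with untreated plants. Application: overhead track spray at 187 L/ha onto seedlings at 1-2 true leaves, in surfactant/crop-oil carrier.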

[2] = system: Key Grass and Sedge Weeds as well as Grass Crops; assay: Post-Emergent Test II: postemergent herbicidal activity, visual rating after 14 d (Table 8); type: in vivo; details: post-emergence, 336 h; for pest or weed control at 35 g/ha: 35 g ai/ha; for pest or weed control at 70 g/ha: 70 g ai/ha; for pest or weed control at 140 g/ha: 140 g ai/ha
Procedure, shortened: as §1

[3] = lambsquarters (Chenopodium album), read-out: Visual Growth Reduction (%) 14 Days After Application CHEAL
[4] = oilseed rape, canola (Brassica napus), read-out: Visual Growth Reduction (%) 14 Days After Application BRSNN
[5] = redroot pigweed (Amaranthus retroflexus), read-out: Visual Growth Reduction (%) 14 Days After Application AMARE
[6] = sunflower (Helianthus annuus), read-out: Visual Growth Reduction (%) 14 Days After Application HELAN
[7] = velvetleaf (Abutilon theophrasti), read-out: Visual Growth Reduction (%) 14 Days After Application ABUTH
[8] = wild poinsettia (Euphorbia heterophylla), read-out: Visual Growth Reduction (%) 14 Days After Application EPHHL
[9] = barnyardgrass (Echinochloa crus-galli), read-out: Visual Growth Reduction (%) 14 Days After Application ECHCG
[10] = giant foxtail (Setaria faberi), read-out: Visual Growth Reduction (%) 14 Days After Application SETFA
[11] = maize, corn (Zea mays), read-out: Visual Growth Reduction (%) 14 Days After Application ZEAMX
[12] = rice (Oryza sativa), read-out: Visual Growth Reduction (%) 14 Days After Application ORYSA
[13] = wheat, spring (Triticum aestivum), read-out: Visual Growth Reduction (%) 14 Days After Application TRZAS
[14] = yellow nutsedge (Cyperus esculentus), read-out: Visual Growth Reduction (%) 14 Days After Application CYPES

## COC(=O)c1nc(-c2ccc(F)c3c2OC(F)(F)O3)c(F)c(N)c1Cl [Compound 76]
[1]; [3]
  pest or weed control at 35 g/ha: 85 to 94%
  pest or weed control at 70 g/ha: 85 to 94%
  pest or weed control at 140 g/ha: 95 to 100%
[1]; [4]
  pest or weed control at 35 g/ha: 60 to 74%
  pest or weed control at 70 g/ha: 75 to 84%
  pest or weed control at 140 g/ha: 85 to 94%
[1]; [5]
  pest or weed control at 35 g/ha: 95 to 100%
  pest or weed control at 70 g/ha: 95 to 100%
  pest or weed control at 140 g/ha: 95 to 100%
[1]; [6]
  pest or weed control at 35 g/ha: 85 to 94%
  pest or weed control at 70 g/ha: 85 to 94%
  pest or weed control at 140 g/ha: 85 to 94%
[1]; [7]
  pest or weed control at 35 g/ha: 60 to 74%
  pest or weed control at 70 g/ha: 75 to 84%
  pest or weed control at 140 g/ha: 85 to 94%
[1]; [8]
  pest or weed control at 35 g/ha: 0 to 29%
  pest or weed control at 70 g/ha: 0 to 29%
  pest or weed control at 140 g/ha: 0 to 29%
[2]; [9]
  pest or weed control at 35 g/ha: 0 to 29%
  pest or weed control at 70 g/ha: 0 to 29%
  pest or weed control at 140 g/ha: 0 to 29%
[2]; [10]
  pest or weed control at 35 g/ha: 0 to 29%
  pest or weed control at 70 g/ha: 0 to 29%
  pest or weed control at 140 g/ha: 0 to 29%
[2]; [11]
  pest or weed control at 35 g/ha: 0 to 29%
  pest or weed control at 70 g/ha: 0 to 29%
  pest or weed control at 140 g/ha: 0 to 29%
[2]; [12]
  pest or weed control at 35 g/ha: 0 to 29%
  pest or weed control at 70 g/ha: 0 to 29%
  pest or weed control at 140 g/ha: 0 to 29%
[2]; [13]
  pest or weed control at 35 g/ha: 30 to 44%
  pest or weed control at 70 g/ha: 45 to 59%
  pest or weed control at 140 g/ha: 60 to 74%
[2]; [14]
  pest or weed control at 35 g/ha: 0 to 29%
  pest or weed control at 70 g/ha: 30 to 44%
  pest or weed control at 140 g/ha: 30 to 44%

## COC(=O)c1nc(-c2ccc3c(c2)OC(F)(F)O3)c(F)c(N)c1OC [Compound 24]
[1]; [3]
  pest or weed control at 35 g/ha: 0 to 29%
  pest or weed control at 70 g/ha: 0 to 29%
  pest or weed control at 140 g/ha: 0 to 29%
[1]; [4]
  pest or weed control at 35 g/ha: 0 to 29%
  pest or weed control at 70 g/ha: 0 to 29%
  pest or weed control at 140 g/ha: 0 to 29%
[1]; [5]
  pest or weed control at 35 g/ha: 0 to 29%
  pest or weed control at 70 g/ha: 0 to 29%
  pest or weed control at 140 g/ha: 0 to 29%
[1]; [6]
  pest or weed control at 35 g/ha: 0 to 29%
  pest or weed control at 70 g/ha: 0 to 29%
  pest or weed control at 140 g/ha: 0 to 29%
[1]; [7]
  pest or weed control at 35 g/ha: 0 to 29%
  pest or weed control at 70 g/ha: 0 to 29%
  pest or weed control at 140 g/ha: 0 to 29%
[1]; [8]
  pest or weed control at 35 g/ha: 75 to 84%
  pest or weed control at 70 g/ha: 95 to 100%
  pest or weed control at 140 g/ha: 95 to 100%
[2]; [9]
  pest or weed control at 35 g/ha: 60 to 74%
  pest or weed control at 70 g/ha: 85 to 94%
  pest or weed control at 140 g/ha: 95 to 100%
[2]; [10]
  pest or weed control at 35 g/ha: 0 to 29%
  pest or weed control at 70 g/ha: 0 to 29%
  pest or weed control at 140 g/ha: 0 to 29%
[2]; [11]
  pest or weed control at 35 g/ha: 60 to 74%
  pest or weed control at 70 g/ha: 75 to 84%
  pest or weed control at 140 g/ha: 75 to 84%
[2]; [12]
  pest or weed control at 35 g/ha: 0 to 29%
  pest or weed control at 70 g/ha: 0 to 29%
  pest or weed control at 140 g/ha: 0 to 29%
[2]; [13]
  pest or weed control at 35 g/ha: 0 to 29%
  pest or weed control at 70 g/ha: 0 to 29%
  pest or weed control at 140 g/ha: 30 to 44%
[2]; [14]
  pest or weed control at 35 g/ha: 95 to 100%
  pest or weed control at 70 g/ha: 95 to 100%
  pest or weed control at 140 g/ha: 95 to 100%

## COC(=O)c1nc(-c2ccc(I)c3c2OC(F)(F)O3)c(F)c(N)c1Cl [Compound 79, Methyl 4-amino-3-chloro-6-(2,2-difluoro-7-iodobenzo-[d][1,3]dioxol-4-yl)-5-fluoropicolinate]
[1]; [3]
  pest or weed control at 35 g/ha: 85 to 94%
  pest or weed control at 70 g/ha: 85 to 94%
  pest or weed control at 140 g/ha: 85 to 94%
[1]; [4]
  pest or weed control at 35 g/ha: 60 to 74%
  pest or weed control at 70 g/ha: 60 to 74%
  pest or weed control at 140 g/ha: 60 to 74%
[1]; [5]
  pest or weed control at 35 g/ha: 95 to 100%
  pest or weed control at 70 g/ha: 95 to 100%
  pest or weed control at 140 g/ha: 95 to 100%
[1]; [6]
  pest or weed control at 35 g/ha: 85 to 94%
  pest or weed control at 70 g/ha: 85 to 94%
  pest or weed control at 140 g/ha: 85 to 94%
[1]; [7]
  pest or weed control at 35 g/ha: 60 to 74%
  pest or weed control at 70 g/ha: 75 to 84%
  pest or weed control at 140 g/ha: 75 to 84%
[1]; [8]
  pest or weed control at 35 g/ha: 0 to 29%
  pest or weed control at 70 g/ha: 0 to 29%
  pest or weed control at 140 g/ha: 0 to 29%
[2]; [9]
  pest or weed control at 35 g/ha: 0 to 29%
  pest or weed control at 70 g/ha: 0 to 29%
  pest or weed control at 140 g/ha: 0 to 29%
[2]; [10]
  pest or weed control at 35 g/ha: 0 to 29%
  pest or weed control at 70 g/ha: 0 to 29%
  pest or weed control at 140 g/ha: 0 to 29%
[2]; [11]
  pest or weed control at 35 g/ha: 0 to 29%
  pest or weed control at 70 g/ha: 0 to 29%
  pest or weed control at 140 g/ha: 0 to 29%
[2]; [12]
  pest or weed control at 35 g/ha: 0 to 29%
  pest or weed control at 70 g/ha: 0 to 29%
  pest or weed control at 140 g/ha: 0 to 29%
[2]; [13]
  pest or weed control at 35 g/ha: 0 to 29%
  pest or weed control at 70 g/ha: 0 to 29%
  pest or weed control at 140 g/ha: 0 to 29%
[2]; [14]
  pest or weed control at 35 g/ha: 0 to 29%
  pest or weed control at 70 g/ha: 0 to 29%
  pest or weed control at 140 g/ha: 0 to 29%
